Compound: NC(=O)CCCCC1CCSS1 [lipoamide]
Assay: thermal stability z-score vs DMSO; higher = more thermally stabilized by treatment
Settings: HeLa; lipoamide concentration 100 µM; arsenate co-treatment: 1 mM arsenate 1 h
Method: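 Cellular thermal proteome profiling in HeLa cells. Cells were treated with 100 µM lipoamide for 1 h, with or without 1 mM arsenate for a further 1 h, then heated to ten temperatures (37-66.3 °C), and soluble protein was quantified by TMT mass spectrometry relative to 0.1% DMSO controls. The thermal stability score (sum of log2 fold changes minus the abundance score) was transformed to a z-score; mean of n = 3 experiments.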
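Also: each temperature applied for 3 min, abundance score taken as mean log2 fold change at the two lowest temperatures, z-score obtained by mean subtraction and division by SD.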

Sequence of UniProt Q9UKD1 (Q9UKD1 whole entry): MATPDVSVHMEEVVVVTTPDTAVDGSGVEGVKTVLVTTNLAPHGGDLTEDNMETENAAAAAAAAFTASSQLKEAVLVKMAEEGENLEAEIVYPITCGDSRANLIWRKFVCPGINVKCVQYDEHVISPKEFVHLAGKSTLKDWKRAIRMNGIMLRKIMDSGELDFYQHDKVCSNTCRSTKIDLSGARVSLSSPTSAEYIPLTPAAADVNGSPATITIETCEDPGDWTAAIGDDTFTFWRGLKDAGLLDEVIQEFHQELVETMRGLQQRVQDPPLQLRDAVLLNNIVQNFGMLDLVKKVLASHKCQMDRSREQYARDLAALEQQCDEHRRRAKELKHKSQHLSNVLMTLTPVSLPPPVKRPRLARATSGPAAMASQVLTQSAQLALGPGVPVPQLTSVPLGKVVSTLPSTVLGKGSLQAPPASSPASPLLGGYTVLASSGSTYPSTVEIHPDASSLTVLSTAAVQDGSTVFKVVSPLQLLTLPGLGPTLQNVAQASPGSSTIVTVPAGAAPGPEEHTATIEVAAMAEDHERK
Sequence of UniProt P50748 (P50748 whole entry): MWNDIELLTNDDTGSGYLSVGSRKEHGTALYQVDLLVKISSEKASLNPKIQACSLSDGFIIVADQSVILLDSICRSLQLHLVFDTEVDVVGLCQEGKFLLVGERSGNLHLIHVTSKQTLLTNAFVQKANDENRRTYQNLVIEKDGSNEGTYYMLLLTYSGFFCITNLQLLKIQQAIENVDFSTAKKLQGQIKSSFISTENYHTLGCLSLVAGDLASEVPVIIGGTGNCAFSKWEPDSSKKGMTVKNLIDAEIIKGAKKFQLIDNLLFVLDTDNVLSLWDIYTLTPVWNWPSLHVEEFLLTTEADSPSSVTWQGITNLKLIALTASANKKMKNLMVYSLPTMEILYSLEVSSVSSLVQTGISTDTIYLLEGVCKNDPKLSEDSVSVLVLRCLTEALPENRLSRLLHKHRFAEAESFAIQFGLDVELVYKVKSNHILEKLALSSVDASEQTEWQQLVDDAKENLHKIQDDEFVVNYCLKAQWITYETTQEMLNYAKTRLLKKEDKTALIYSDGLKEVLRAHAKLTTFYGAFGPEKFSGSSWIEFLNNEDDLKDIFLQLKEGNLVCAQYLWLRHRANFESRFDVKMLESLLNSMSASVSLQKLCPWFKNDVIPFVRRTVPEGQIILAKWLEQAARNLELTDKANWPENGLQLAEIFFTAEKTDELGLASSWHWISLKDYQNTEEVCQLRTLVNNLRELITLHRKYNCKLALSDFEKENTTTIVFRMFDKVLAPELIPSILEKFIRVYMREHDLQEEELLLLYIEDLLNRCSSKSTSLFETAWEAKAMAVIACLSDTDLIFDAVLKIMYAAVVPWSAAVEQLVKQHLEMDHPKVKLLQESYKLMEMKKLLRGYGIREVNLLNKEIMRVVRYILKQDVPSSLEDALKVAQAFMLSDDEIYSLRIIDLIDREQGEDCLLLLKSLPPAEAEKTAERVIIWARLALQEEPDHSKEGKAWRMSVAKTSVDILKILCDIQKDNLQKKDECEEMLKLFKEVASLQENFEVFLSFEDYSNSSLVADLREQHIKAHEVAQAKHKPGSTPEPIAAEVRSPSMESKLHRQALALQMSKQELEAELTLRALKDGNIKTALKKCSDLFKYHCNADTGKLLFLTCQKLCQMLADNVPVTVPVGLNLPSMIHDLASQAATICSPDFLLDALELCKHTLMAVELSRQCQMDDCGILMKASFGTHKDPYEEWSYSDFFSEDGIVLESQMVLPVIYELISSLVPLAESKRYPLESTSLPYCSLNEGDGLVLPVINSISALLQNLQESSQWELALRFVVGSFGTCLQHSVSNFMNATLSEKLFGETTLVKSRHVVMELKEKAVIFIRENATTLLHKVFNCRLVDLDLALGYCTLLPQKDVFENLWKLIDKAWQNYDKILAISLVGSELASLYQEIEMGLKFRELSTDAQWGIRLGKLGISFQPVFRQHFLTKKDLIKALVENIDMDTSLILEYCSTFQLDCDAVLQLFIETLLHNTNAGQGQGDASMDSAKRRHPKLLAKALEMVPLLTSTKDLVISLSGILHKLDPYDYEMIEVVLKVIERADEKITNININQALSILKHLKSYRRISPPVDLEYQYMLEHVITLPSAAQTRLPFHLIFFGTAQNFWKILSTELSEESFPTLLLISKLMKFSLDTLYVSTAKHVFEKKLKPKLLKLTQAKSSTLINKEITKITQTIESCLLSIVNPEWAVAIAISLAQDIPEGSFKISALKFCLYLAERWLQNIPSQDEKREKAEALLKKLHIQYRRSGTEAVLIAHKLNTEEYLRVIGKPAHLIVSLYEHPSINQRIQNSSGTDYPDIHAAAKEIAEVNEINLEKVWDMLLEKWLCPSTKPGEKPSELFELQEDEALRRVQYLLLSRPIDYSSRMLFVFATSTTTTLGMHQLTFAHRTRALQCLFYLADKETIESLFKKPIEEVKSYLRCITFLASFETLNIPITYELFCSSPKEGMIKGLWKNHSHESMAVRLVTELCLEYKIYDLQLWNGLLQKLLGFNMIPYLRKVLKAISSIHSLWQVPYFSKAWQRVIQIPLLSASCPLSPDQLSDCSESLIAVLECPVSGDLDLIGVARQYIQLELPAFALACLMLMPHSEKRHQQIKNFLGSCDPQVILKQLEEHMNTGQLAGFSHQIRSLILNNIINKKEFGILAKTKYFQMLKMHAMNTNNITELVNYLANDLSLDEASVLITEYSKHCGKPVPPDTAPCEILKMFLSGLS
Sequence of UniProt P04843 (P04843 whole entry): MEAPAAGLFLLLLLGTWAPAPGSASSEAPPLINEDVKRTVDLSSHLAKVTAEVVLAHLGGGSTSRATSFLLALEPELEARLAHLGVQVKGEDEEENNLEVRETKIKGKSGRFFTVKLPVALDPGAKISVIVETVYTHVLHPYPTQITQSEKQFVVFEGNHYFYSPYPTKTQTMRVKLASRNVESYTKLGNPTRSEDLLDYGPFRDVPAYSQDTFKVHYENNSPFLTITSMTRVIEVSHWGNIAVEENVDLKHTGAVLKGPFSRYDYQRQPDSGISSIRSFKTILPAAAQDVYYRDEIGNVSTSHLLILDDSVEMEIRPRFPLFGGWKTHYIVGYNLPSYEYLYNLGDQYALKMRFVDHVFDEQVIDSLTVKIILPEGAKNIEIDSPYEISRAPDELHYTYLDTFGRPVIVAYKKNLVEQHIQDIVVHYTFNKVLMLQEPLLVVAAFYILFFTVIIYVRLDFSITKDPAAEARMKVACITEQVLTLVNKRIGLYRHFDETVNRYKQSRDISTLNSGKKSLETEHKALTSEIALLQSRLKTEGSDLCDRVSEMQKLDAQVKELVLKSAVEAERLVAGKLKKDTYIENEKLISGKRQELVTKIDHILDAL
Sequence of UniProt Q96IJ6 (Q96IJ6 whole entry): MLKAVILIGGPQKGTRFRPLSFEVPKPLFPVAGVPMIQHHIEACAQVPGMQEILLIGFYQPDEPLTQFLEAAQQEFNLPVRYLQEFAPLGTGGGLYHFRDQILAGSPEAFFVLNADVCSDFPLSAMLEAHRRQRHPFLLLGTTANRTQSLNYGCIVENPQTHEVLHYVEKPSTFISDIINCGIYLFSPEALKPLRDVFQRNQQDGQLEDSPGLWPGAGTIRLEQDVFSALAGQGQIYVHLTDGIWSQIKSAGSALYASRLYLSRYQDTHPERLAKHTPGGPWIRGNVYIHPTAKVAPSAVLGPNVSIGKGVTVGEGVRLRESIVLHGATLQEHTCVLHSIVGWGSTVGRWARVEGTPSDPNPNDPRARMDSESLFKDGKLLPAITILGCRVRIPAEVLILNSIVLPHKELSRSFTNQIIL
Sequence of UniProt Q9NRX4 (Q9NRX4 whole entry): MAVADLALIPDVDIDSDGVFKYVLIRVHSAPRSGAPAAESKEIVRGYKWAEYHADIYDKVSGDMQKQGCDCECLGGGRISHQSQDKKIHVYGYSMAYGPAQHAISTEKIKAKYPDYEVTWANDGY
Sequence of UniProt Q92544 (Q92544 whole entry): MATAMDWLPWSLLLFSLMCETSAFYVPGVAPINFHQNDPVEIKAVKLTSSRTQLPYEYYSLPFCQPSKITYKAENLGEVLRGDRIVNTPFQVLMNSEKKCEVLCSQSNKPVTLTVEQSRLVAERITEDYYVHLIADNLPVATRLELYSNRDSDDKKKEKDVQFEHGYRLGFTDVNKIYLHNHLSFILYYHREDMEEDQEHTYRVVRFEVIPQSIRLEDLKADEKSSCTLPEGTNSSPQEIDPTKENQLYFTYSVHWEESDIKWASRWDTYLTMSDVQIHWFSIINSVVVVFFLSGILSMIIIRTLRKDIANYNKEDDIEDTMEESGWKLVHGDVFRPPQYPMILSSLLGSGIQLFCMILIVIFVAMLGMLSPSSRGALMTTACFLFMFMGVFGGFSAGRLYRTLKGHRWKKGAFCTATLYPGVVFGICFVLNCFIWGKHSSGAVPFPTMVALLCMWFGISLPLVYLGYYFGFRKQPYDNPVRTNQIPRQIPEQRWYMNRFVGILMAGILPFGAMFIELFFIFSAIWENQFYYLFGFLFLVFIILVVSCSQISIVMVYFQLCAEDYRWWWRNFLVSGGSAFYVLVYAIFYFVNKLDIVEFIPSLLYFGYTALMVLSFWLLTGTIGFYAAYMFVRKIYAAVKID
Sequence of UniProt P62942 (P62942 whole entry): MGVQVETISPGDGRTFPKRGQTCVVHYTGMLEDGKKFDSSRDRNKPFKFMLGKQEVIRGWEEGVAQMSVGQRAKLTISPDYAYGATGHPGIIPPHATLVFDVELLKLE
Sequence of UniProt Q96J01 (Q96J01 whole entry): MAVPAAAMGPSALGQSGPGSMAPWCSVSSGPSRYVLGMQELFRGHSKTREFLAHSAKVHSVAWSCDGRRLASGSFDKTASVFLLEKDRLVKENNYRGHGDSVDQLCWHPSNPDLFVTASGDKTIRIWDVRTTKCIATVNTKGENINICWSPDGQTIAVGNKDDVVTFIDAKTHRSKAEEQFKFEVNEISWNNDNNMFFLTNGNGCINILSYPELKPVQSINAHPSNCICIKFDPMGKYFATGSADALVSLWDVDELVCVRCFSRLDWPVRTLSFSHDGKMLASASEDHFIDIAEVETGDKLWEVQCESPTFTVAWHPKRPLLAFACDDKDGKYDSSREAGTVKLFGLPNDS

Target	thermal stability z-score
FLAD1 (UniProt Q8NFF5)	0.0301
CNOT2 (UniProt Q9NZN8)	-0.563
YTHDF1 (UniProt Q9BYJ9)	0.00152
PLCG1 (UniProt P19174)	0.538
PPP2R4 (UniProt Q15257)	0.108
RASA1 (UniProt P20936)	0.447
SAR1A (UniProt Q9NR31)	0.174
GTF3C4 (UniProt Q9UKN8)	0.237
LMO4 (UniProt P61968)	0.548
GOLGA5 (UniProt Q8TBA6)	0.419
KLC1 (UniProt Q07866)	-0.0381
CUX1	0.393
TSR2 (UniProt Q969E8)	0.33
TUBGCP2 (UniProt Q9BSJ2)	-0.0736
TRMT1L (UniProt Q7Z2T5)	0.385
TYW5 (UniProt A2RUC4)	0.502
GMPPA (UniProt Q96IJ6)	-0.54
SDHAF3 (UniProt Q9NRP4)	-0.644
PKMYT1 (UniProt Q99640)	-0.143
YARS2 (UniProt Q9Y2Z4)	-0.741
EMC3 (UniProt Q9P0I2)	-0.0707
TMED7 (UniProt Q9Y3B3)	-0.983
ARHGAP18 (UniProt Q8N392)	1.13
COX11 (UniProt Q9Y6N1)	0.0437

Target	thermal stability z-score
SLC2A3 (UniProt P11169)	0.481
THOC3 (UniProt Q96J01)	0.252
RPS6KC1 (UniProt Q96S38)	-0.161
HSCB (UniProt Q8IWL3)	0.0143
RPN1 (UniProt P04843)	-1.47
TH1L|NELFCD	-0.0628
VPS45 (UniProt Q9NRW7)	0.546
PLAA (UniProt Q9Y263)	0.0745
NDC80 (UniProt O14777)	-0.361
TM9SF4 (UniProt Q92544)	-0.593
KNTC1 (UniProt P50748)	-0.59
TMEM23|SGMS1	0.177
PHPT1 (UniProt Q9NRX4)	0.922
MKLN1 (UniProt Q9UL63)	-0.128
UTP18 (UniProt Q9Y5J1)	0.058
QDPR (UniProt P09417)	0.36
SESTD1 (UniProt Q86VW0)	0.202
STOML2 (UniProt Q9UJZ1)	-0.324
PLPP1 (UniProt O14494)	-0.53
PTGES3 (UniProt Q15185)	0.0467
GMEB2 (UniProt Q9UKD1)	0.0462
FKBP4 (UniProt Q02790)	0.198
NUP50 (UniProt Q9UKX7)	1.4
TRIM21 (UniProt P19474)	-0.677

Target	thermal stability z-score
SCD (UniProt O00767)	-1.45
MB21D1 (UniProt Q8N884)	0.409
CLIP1 (UniProt P30622)	-0.0952
TARS2 (UniProt Q9BW92)	0.183
PLA2G4A (UniProt P47712)	-0.308
HARS (UniProt P12081)	-0.0978
ADCY9 (UniProt O60503)	0.368
TRAFD1 (UniProt O14545)	-1.34
SEC23B (UniProt Q15437)	1.19
EIF4E2 (UniProt O60573)	-0.568
RDX (UniProt P35241)	0.749
TNPO1 (UniProt Q92973)	-1.32
SHQ1 (UniProt Q6PI26)	-0.105
RBM7 (UniProt Q9Y580)	0.00736
FKBP1A (UniProt P62942)	0.374
CYB5R3 (UniProt P00387)	1.07
CLIC4 (UniProt Q9Y696)	0.264
HACD3 (UniProt Q9P035)	-1.92
S100A10 (UniProt P60903)	1.65
PRRC2C (UniProt Q9Y520)	0.242
MRPS16 (UniProt Q9Y3D3)	-0.314
APEX1 (UniProt P27695)	-0.558
C1ORF198 (UniProt Q9H425)	-0.254
POLE4 (UniProt Q9NR33)	0.919

Same assay, conditions: HeLa; lipoamide concentration 100 µM; arsenate co-treatment: none

Target	thermal stability z-score
FLAD1 (UniProt Q8NFF5)	0.05
CNOT2 (UniProt Q9NZN8)	0.153
YTHDF1 (UniProt Q9BYJ9)	-0.0393
PLCG1 (UniProt P19174)	0.247
PPP2R4 (UniProt Q15257)	0.233
RASA1 (UniProt P20936)	0.753
SAR1A (UniProt Q9NR31)	0.266
GTF3C4 (UniProt Q9UKN8)	0.0733
LMO4 (UniProt P61968)	0.0182
GOLGA5 (UniProt Q8TBA6)	0.582
KLC1 (UniProt Q07866)	-0.129
CUX1	0.589
TSR2 (UniProt Q969E8)	0.0774
TUBGCP2 (UniProt Q9BSJ2)	-0.0416
TRMT1L (UniProt Q7Z2T5)	0.0926
TYW5 (UniProt A2RUC4)	0.336
GMPPA (UniProt Q96IJ6)	-1.04
SDHAF3 (UniProt Q9NRP4)	-0.535
PKMYT1 (UniProt Q99640)	-0.144
YARS2 (UniProt Q9Y2Z4)	-0.156
EMC3 (UniProt Q9P0I2)	-0.245
TMED7 (UniProt Q9Y3B3)	-0.909
ARHGAP18 (UniProt Q8N392)	1.59
COX11 (UniProt Q9Y6N1)	-0.0617

Target	thermal stability z-score
SLC2A3 (UniProt P11169)	0.126
THOC3 (UniProt Q96J01)	0.058
RPS6KC1 (UniProt Q96S38)	-0.151
HSCB (UniProt Q8IWL3)	0.667
RPN1 (UniProt P04843)	-0.974
TH1L|NELFCD	-0.0836
VPS45 (UniProt Q9NRW7)	0.434
PLAA (UniProt Q9Y263)	-0.41
NDC80 (UniProt O14777)	0.254
TM9SF4 (UniProt Q92544)	-0.263
KNTC1 (UniProt P50748)	-0.253
TMEM23|SGMS1	-0.142
PHPT1 (UniProt Q9NRX4)	0.553
MKLN1 (UniProt Q9UL63)	-0.114
UTP18 (UniProt Q9Y5J1)	-0.244
QDPR (UniProt P09417)	0.387
SESTD1 (UniProt Q86VW0)	0.128
STOML2 (UniProt Q9UJZ1)	0.0393
PLPP1 (UniProt O14494)	0.262
PTGES3 (UniProt Q15185)	0.127
GMEB2 (UniProt Q9UKD1)	-0.00217
FKBP4 (UniProt Q02790)	0.244
NUP50 (UniProt Q9UKX7)	1.06
TRIM21 (UniProt P19474)	-0.149

Target	thermal stability z-score
SCD (UniProt O00767)	-2.34
MB21D1 (UniProt Q8N884)	0.258
CLIP1 (UniProt P30622)	0.0784
TARS2 (UniProt Q9BW92)	0.625
PLA2G4A (UniProt P47712)	-0.439
HARS (UniProt P12081)	-0.228
ADCY9 (UniProt O60503)	0.853
TRAFD1 (UniProt O14545)	-0.816
SEC23B (UniProt Q15437)	0.766
EIF4E2 (UniProt O60573)	-0.113
RDX (UniProt P35241)	0.45
TNPO1 (UniProt Q92973)	-1.31
SHQ1 (UniProt Q6PI26)	0.0326
RBM7 (UniProt Q9Y580)	0.0818
FKBP1A (UniProt P62942)	0.262
CYB5R3 (UniProt P00387)	-0.079
CLIC4 (UniProt Q9Y696)	0.427
HACD3 (UniProt Q9P035)	-0.722
S100A10 (UniProt P60903)	1.54
PRRC2C (UniProt Q9Y520)	0.174
MRPS16 (UniProt Q9Y3D3)	-0.201
APEX1 (UniProt P27695)	0.406
C1ORF198 (UniProt Q9H425)	0.135
POLE4 (UniProt Q9NR33)	0.928

Compound: O=[As]([O-])(O)O.[K+] [potassium arsenate]
Assay: as above
Settings: HeLa; arsenate concentration 1 mM
Method: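 Cellular thermal proteome profiling in HeLa cells treated with 1 mM arsenate for 1 h (DMSO pretreatment), heated to ten temperatures (37-66.3 °C). Soluble protein was quantified by TMT mass spectrometry relative to DMSO controls; the thermal stability score was transformed to a z-score; mean of n = 3 experiments.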

Target	thermal stability z-score
FLAD1 (UniProt Q8NFF5)	-1.16
CNOT2 (UniProt Q9NZN8)	1.62
YTHDF1 (UniProt Q9BYJ9)	-0.193
PLCG1 (UniProt P19174)	0.623
PPP2R4 (UniProt Q15257)	-0.0643
RASA1 (UniProt P20936)	1.15
SAR1A (UniProt Q9NR31)	0.248
GTF3C4 (UniProt Q9UKN8)	-1.21
LMO4 (UniProt P61968)	0.164
GOLGA5 (UniProt Q8TBA6)	0.197
KLC1 (UniProt Q07866)	-0.0989
CUX1	0.272
TSR2 (UniProt Q969E8)	0.317
TUBGCP2 (UniProt Q9BSJ2)	0.27
TRMT1L (UniProt Q7Z2T5)	-1.26
TYW5 (UniProt A2RUC4)	0.66
GMPPA (UniProt Q96IJ6)	-0.0973
SDHAF3 (UniProt Q9NRP4)	-0.145
PKMYT1 (UniProt Q99640)	-0.0435
YARS2 (UniProt Q9Y2Z4)	0.423
EMC3 (UniProt Q9P0I2)	-0.133
TMED7 (UniProt Q9Y3B3)	0.0944
ARHGAP18 (UniProt Q8N392)	1.21
COX11 (UniProt Q9Y6N1)	0.0514

Target	thermal stability z-score
SLC2A3 (UniProt P11169)	-0.293
THOC3 (UniProt Q96J01)	-0.683
RPS6KC1 (UniProt Q96S38)	-0.393
HSCB (UniProt Q8IWL3)	0.175
RPN1 (UniProt P04843)	0.346
TH1L|NELFCD	0.0938
VPS45 (UniProt Q9NRW7)	0.0668
PLAA (UniProt Q9Y263)	-0.0864
NDC80 (UniProt O14777)	1.71
TM9SF4 (UniProt Q92544)	0.734
KNTC1 (UniProt P50748)	0.572
TMEM23|SGMS1	-0.151
PHPT1 (UniProt Q9NRX4)	-1.95
MKLN1 (UniProt Q9UL63)	-0.403
UTP18 (UniProt Q9Y5J1)	0.516
QDPR (UniProt P09417)	-1.26
SESTD1 (UniProt Q86VW0)	0.352
STOML2 (UniProt Q9UJZ1)	-0.147
PLPP1 (UniProt O14494)	0.324
PTGES3 (UniProt Q15185)	-0.454
GMEB2 (UniProt Q9UKD1)	0.453
FKBP4 (UniProt Q02790)	0.191
NUP50 (UniProt Q9UKX7)	0.502
TRIM21 (UniProt P19474)	0.307

Target	thermal stability z-score
SCD (UniProt O00767)	1.66
MB21D1 (UniProt Q8N884)	0.109
CLIP1 (UniProt P30622)	-0.345
TARS2 (UniProt Q9BW92)	0.922
PLA2G4A (UniProt P47712)	-0.294
HARS (UniProt P12081)	1.38
ADCY9 (UniProt O60503)	0.26
TRAFD1 (UniProt O14545)	-2.25
SEC23B (UniProt Q15437)	0.645
EIF4E2 (UniProt O60573)	-1.43
RDX (UniProt P35241)	0.883
TNPO1 (UniProt Q92973)	1.98
SHQ1 (UniProt Q6PI26)	0.000909
RBM7 (UniProt Q9Y580)	0.0182
FKBP1A (UniProt P62942)	-1.96
CYB5R3 (UniProt P00387)	-0.832
CLIC4 (UniProt Q9Y696)	-0.572
HACD3 (UniProt Q9P035)	-1.47
S100A10 (UniProt P60903)	0.372
PRRC2C (UniProt Q9Y520)	0.0846
MRPS16 (UniProt Q9Y3D3)	0.0354
APEX1 (UniProt P27695)	-0.345
C1ORF198 (UniProt Q9H425)	0.635
POLE4 (UniProt Q9NR33)	-1.07
